Values quoted from earlier work in article PMC11790914, “Chemogenomics for steroid hormone receptors (NR3)” (Communications Chemistry, 2025).

conditions: other targets with annotated bioactivities at ≤10 µM in previously published dataset; cited from earlier work

Row | Compound | Reason for exclusion: number of annotated off-targets [off-targets]
1 | C[C@]12CC[C@@H]3c4ccc(O)cc4CC[C@H]3[C@@H]1CC[C@@H]2O [17β-Estradiol] | > 5
2 | CCC(=C(c1ccc(O)cc1)c1ccc(OCCN(C)C)cc1)c1ccccc1 [(E,Z)-Hydroxytamoxifen] | > 5
3 | CC(O)(CS(=O)(=O)c1ccc(F)cc1)C(=O)Nc1ccc(C#N)c(C(F)(F)F)c1 (stereo not shown) [Bicalutamide] | > 5
4 | O=c1oc2cc(O)ccc2c2oc3cc(O)ccc3c12 [Coumestrol] | > 5
5 | O=c1c(-c2ccc(O)cc2)coc2cc(O)ccc12 [Daidzein] | > 5
6 | C[C@]12CCC(=O)C[C@@H]1CC[C@@H]1[C@@H]2CC[C@]2(C)[C@@H](O)CC[C@@H]12 [Dihydrotestosterone] | > 5
7 | C/C=C1/C(=O)C[C@H]2[C@@H]3CCC4=CC(=O)CC[C@]4(C)[C@H]3CC[C@]12C [E-Guggulsterone] | > 5
8 | CCN(CC)CCOc1ccc(/C(=C(/Cl)c2ccccc2)c2ccccc2)cc1.Cl [Enclomiphene hydrochloride] | > 5
9 | C[C@]12CC[C@@H]3c4ccc(OC(=O)c5ccccc5)cc4CC[C@H]3[C@@H]1CC[C@@H]2O [Estradiol benzoate] | > 5
10 | C[C@]12CC[C@@H]3c4ccc(O)cc4CC[C@H]3[C@@H]1C[C@@H](O)[C@@H]2O [Estriol] | > 5
11 | CC(C)C(=O)Nc1ccc([N+](=O)[O-])c(C(F)(F)F)c1 [Flutamide] | > 5
12 | C[C@@H]1C[C@H]2[C@@H]3C[C@H](F)C4=CC(=O)C=C[C@]4(C)[C@@]3(F)[C@@H](O)C[C@]2(C)[C@@]1(OC(=O)c1ccco1)C(=O)SCF [Fluticasone furoate] | > 5
13 | C[C@]12CC[C@H](O)CC1=CC[C@@H]1[C@@H]2CC[C@]2(C)C(n3cnc4ccccc43)=CC[C@@H]12 [Galeterone] | > 5
14 | O=c1c(-c2ccc(O)cc2)coc2cc(O)cc(O)c12 [Genistein] | > 5
15 | Oc1c(Cl)cc(Cl)c(Cl)c1Cc1c(O)c(Cl)cc(Cl)c1Cl [Hexachlorophene] | > 5
16 | CC(=O)[C@@]1(O)CC[C@H]2[C@@H]3CCC4=CC(=O)CC[C@]4(C)[C@H]3CC[C@@]21C [Hydroxyprogesterone] | > 5
17 | COc1ccc2c(c1)c(CC(=O)O)c(C)n2C(=O)c1ccc(Cl)cc1 [Indomethacin] | > 5
18 | CC(=O)O[C@]1(C(C)=O)CC[C@H]2[C@@H]3C[C@H](C)C4=CC(=O)CC[C@]4(C)[C@H]3CC[C@@]21C [Medroxyprogesterone acetate] | > 5
19 | COc1cc([C@@H]2c3cc4c(cc3[C@H](O)[C@H]3COC(=O)[C@H]23)OCO4)cc(OC)c1OC [Podophyllotoxin] | > 5
20 | C[C@]12C=CC(=O)C=C1CC[C@@H]1[C@@H]2[C@@H](O)C[C@@]2(C)[C@H]1CC[C@]2(O)C(=O)CO [Prednisolone] | > 5
21 | CC(=O)[C@H]1CC[C@H]2[C@@H]3CCC4=CC(=O)CC[C@]4(C)[C@H]3CC[C@]12C [Progesterone] | > 5
22 | CC(=O)S[C@@H]1CC2=CC(=O)CC[C@]2(C)[C@H]2CC[C@@]3(C)[C@@H](CC[C@@]34CCC(=O)O4)[C@H]12 [Spironolactone] | > 5
23 | CC/C(=C(\c1ccccc1)c1ccc(OCCN(C)C)cc1)c1ccccc1 [Tamoxifen] | > 5
24 | C[C@]12CC[C@H]3[C@@H](CCC4=CC(=O)CC[C@@]43C)[C@@H]1CC[C@@H]2O [Testosterone] | > 5
25 | C[C@]12C=CC(=O)C=C1CC[C@H]1[C@@H]3C[C@@H](O)[C@](O)(C(=O)CO)[C@@]3(C)C[C@H](O)[C@@]12F [Triamcinolone] | > 5
